The supplement of paper PMC10307832

Tests used:
Experiment in all cases: relative viability (nuclei count vs DMSO), 5 days (fraction); higher = more cells survive
[1] = compound: Cn1nnc2c(C(N)=O)ncn2c1=O [Temozolomide] + CC(=O)Nc1cccc(-n2c(=O)n(C3CC3)c(=O)c3c(Nc4ccc(I)cc4F)n(C)c(=O)c(C)c32)c1 [Trametinib] (partner 0.02 µM)
Method in brief: (§1)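 One day after seeding in 1536-well plates, lung cancer cell lines were dosed by pin tool. Dosing was either single-drug or a fixed anchor-drug dose plus five library-drug doses (not always all listed) in √10 steps. After 5 days, nuclei were stained in one fix-and-stain step and counted on 4× images, and relative viability is the nuclei count of treated wells over that of vehicle wells, given as the median of duplicate plates.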

Temozolomide + AZD7762 = compound: Cn1nnc2c(C(N)=O)ncn2c1=O [Temozolomide] + NC(=O)Nc1cc(-c2cccc(F)c2)sc1C(=O)N[C@H]1CCCNC1 [AZD7762] (partner 0.2 µM)
Method in brief: as §1

AZD5582 + Decitabine = compound: C[C@@H](C(=O)N[C@@H](C1CCCCC1)C(=O)N2CCC[C@H]2C(=O)N[C@@H]3[C@@H](CC4=CC=CC=C34)OCC#CC#CCO[C@@H]5CC6=CC=CC=C6[C@@H]5NC(=O)[C@@H]7CCCN7C(=O)[C@H](C8CCCCC8)NC(=O)[C@H](C)NC)NC [AZD5582] + Nc1ncn([C@H]2C[C@H](O)[C@@H](CO)O2)c(=O)n1 [Decitabine] (partner 2 µM)
Method in brief: as §1

AZD5582 + Pictilisib = compound: C[C@@H](C(=O)N[C@@H](C1CCCCC1)C(=O)N2CCC[C@H]2C(=O)N[C@@H]3[C@@H](CC4=CC=CC=C34)OCC#CC#CCO[C@@H]5CC6=CC=CC=C6[C@@H]5NC(=O)[C@@H]7CCCN7C(=O)[C@H](C8CCCCC8)NC(=O)[C@H](C)NC)NC [AZD5582] + CS(=O)(=O)N1CCN(Cc2cc3nc(-c4cccc5[nH]ncc45)nc(N4CCOCC4)c3s2)CC1 [Pictilisib] (partner 1 µM)
Method in brief: as §1

Cell Line	relative viability ([1]; first compound 0.2 µM)	relative viability ([1]; first compound 0.6325 µM)	relative viability ([1]; first compound 2 µM)	relative viability ([1]; first compound 6.325 µM)	relative viability ([1]; first compound 20 µM)	relative viability (Temozolomide + AZD7762; first compound 0.2 µM)	relative viability (Temozolomide + AZD7762; first compound 0.6325 µM)	relative viability (Temozolomide + AZD7762; first compound 2 µM)	relative viability (Temozolomide + AZD7762; first compound 6.325 µM)	relative viability (Temozolomide + AZD7762; first compound 20 µM)	relative viability (AZD5582 + Decitabine; first compound 0.001581 µM)	relative viability (AZD5582 + Decitabine; first compound 0.005 µM)	relative viability (AZD5582 + Decitabine; first compound 0.01581 µM)	relative viability (AZD5582 + Decitabine; first compound 0.05 µM)	relative viability (AZD5582 + Pictilisib; first compound 0.001581 µM)	relative viability (AZD5582 + Pictilisib; first compound 0.005 µM)	relative viability (AZD5582 + Pictilisib; first compound 0.01581 µM)	relative viability (AZD5582 + Pictilisib; first compound 0.05 µM)
NCI-H322M	0.446	0.526	0.569	0.532	0.451	0.558	0.559	0.545	0.547	0.455	0.762	0.739	0.652	0.737	0.554	0.632	0.715	0.625
NCI-H358	0.108	0.143	0.131	0.139	0.145		0.466	0.533	0.408	0.369	0.199	0.241	0.245	0.215	0.426	0.308	0.394	0.308
NCI-H441	0.543	0.642	0.478	0.425	0.459	1.27	1.12	1.04	1.13	1.13	0.211	0.23	0.21	0.225	0.419	0.536	0.405	0.47
NCI-H460	0.136	0.236	0.158	0.0735	0.134	0.694	0.643	0.694	0.611	0.619	0.424	0.491	0.466	0.577	0.277	0.329	0.366	0.337
NCI-H596	0.916	0.714	0.943	0.789	0.877	1.29	1.09	1.17	1.02	1.29	1.02		1.06	0.39	0.31	0.348	0.413	0.191
NCI-H647	0.528	0.537	0.56	0.353	0.227	0.674	0.549	0.392	0.205	0.145	0.426	0.366	0.417	0.331	0.388	0.449		0.458
NCI-H650	0.954	1.02	1.38	0.869	1.01	0.973	1.16	0.938	0.953	0.879	0.327	0.3	0.321	0.306	0.645	0.702	0.759	0.589
NCI-H727		0.426	0.397	0.435	0.403		0.521	0.512	0.606	0.412	0.965	0.856	0.801	0.921	0.258	0.4	0.413	0.257
NCI-H838	0.498	0.559	0.586	0.482	0.585	0.914	0.977	0.961	0.89	0.881	0.451	0.41	0.476	0.396	0.39	0.467	0.362	0.59
